ChEMBL document CHEMBL1150135, “Pharacine, a natural p-cyclophane and other indole derivatives from Cytophaga sp. strain AM13.1” (J Nat Prod, 2002)
Calls of active or inactive are those of the source.

Experiments:
Type in all cases: functional, organism-based
Candida albicans = assay: Antimicrobial activity against Candida albicans by agar diffusion method
Rhizomucor miehei = assay: Antimicrobial activity against Mucor miehei by agar diffusion method
Staphylococcus aureus = assay: Antimicrobial activity against Staphylococcus aureus by agar diffusion method
Escherichia coli = assay: Antimicrobial activity against Escherichia coli by agar diffusion method
Bacillus subtilis = assay: Antimicrobial activity against Bacillus subtilis by agar diffusion method
[1] = tested on: Streptomyces viridochromogenes; assay: Antimicrobial activity against Streptomyces viridochromogenes by agar diffusion method

Measured: Activity

CC(C)CC(=O)NCCc1c[nH]c2ccccc12
inactive: all assays above

NC(=O)Cc1ccc(O)cc1
inactive: all assays above

c1ccc2c(Cc3cnc(Cc4c[nH]c5ccccc45)cn3)c[nH]c2c1
inactive: all assays above

O=C1OCCCCOC(=O)c2ccc(cc2)C(=O)OCCCCOC(=O)c2ccc1cc2
inactive: all assays above
